pIC50, pKi: −log10 of the molar value.

Assay [1] deals with T1, Alpha-1A adrenergic receptor (Bos taurus, UniProt P18130).
T1 sequence (P18130 whole entry): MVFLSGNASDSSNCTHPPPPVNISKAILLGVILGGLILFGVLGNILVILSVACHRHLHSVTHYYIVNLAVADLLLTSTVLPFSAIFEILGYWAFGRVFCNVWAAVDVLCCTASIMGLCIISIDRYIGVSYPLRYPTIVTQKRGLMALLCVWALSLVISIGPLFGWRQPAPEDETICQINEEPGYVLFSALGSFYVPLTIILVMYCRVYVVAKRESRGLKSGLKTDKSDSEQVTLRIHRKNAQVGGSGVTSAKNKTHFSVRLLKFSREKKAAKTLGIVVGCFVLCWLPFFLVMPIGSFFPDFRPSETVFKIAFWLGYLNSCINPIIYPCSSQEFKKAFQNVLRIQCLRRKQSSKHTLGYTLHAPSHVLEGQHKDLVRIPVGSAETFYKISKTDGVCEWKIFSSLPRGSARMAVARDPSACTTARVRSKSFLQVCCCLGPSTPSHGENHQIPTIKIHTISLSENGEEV
In words: Binding affinity of compound towards Alpha-1 adrenergic receptor using [3H]prazosin 0.5 nM ligand in frontal cortex calf was determined. It is filed as tissue-based.

Assay [2] has as its target T2, 5-hydroxytryptamine receptor 1A (Rattus norvegicus) (UniProt P19327).
T2 sequence (whole entry): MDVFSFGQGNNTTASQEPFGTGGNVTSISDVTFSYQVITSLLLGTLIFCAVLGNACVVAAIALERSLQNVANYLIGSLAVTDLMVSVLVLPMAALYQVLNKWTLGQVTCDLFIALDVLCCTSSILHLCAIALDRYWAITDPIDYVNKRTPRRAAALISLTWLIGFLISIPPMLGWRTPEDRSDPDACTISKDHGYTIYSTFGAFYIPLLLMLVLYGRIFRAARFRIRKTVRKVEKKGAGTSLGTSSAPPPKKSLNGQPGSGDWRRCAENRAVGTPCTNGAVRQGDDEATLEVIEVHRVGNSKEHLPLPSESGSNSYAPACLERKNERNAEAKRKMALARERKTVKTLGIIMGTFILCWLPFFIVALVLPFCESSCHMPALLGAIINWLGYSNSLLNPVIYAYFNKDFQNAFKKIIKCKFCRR
Description: Inhibition of [3H]8-OH-DPAT binding to 5-hydroxytryptamine 1A receptor in rat hippocampal membranes at 10e-7 M. It is filed as cell membranes. The note with it: Hippocampus, Membrane.

For another assay, the target named is D(1A) dopamine receptor (Bos taurus, UniProt Q95136). In words: Inhibition of [3H]SCH-23390 binding to Dopamine receptor D1 of bovine striatum. It is filed as tissue-based.
Chain of D(1A) dopamine receptor (Q95136 whole entry): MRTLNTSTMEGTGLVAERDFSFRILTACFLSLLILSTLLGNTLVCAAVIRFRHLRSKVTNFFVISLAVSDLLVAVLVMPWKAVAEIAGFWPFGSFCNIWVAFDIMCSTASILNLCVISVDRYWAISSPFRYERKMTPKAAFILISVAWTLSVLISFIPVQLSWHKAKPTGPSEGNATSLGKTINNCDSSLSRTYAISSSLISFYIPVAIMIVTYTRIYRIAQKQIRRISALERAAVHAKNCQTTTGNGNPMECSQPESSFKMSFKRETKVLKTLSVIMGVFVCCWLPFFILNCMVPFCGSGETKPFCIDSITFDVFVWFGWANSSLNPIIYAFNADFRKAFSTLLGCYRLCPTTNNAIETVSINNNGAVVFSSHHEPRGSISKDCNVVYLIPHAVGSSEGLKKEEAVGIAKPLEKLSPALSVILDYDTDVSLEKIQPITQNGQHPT
Assay [3] has as its target Sigma non-opioid intracellular receptor 1 (Rattus norvegicus, UniProt Q9R0C9). In words: Inhibition of [3H]DTG binding to sigma receptor in rat hippocampus. It is filed as tissue-based.
Another assay deals with D(2) dopamine receptor (Bos taurus, UniProt P20288). Description: Inhibition of [3H]raclopride binding to Dopamine receptor D2 of bovine striatum. It is filed as tissue-based.
Chain of D(2) dopamine receptor (P20288 whole entry): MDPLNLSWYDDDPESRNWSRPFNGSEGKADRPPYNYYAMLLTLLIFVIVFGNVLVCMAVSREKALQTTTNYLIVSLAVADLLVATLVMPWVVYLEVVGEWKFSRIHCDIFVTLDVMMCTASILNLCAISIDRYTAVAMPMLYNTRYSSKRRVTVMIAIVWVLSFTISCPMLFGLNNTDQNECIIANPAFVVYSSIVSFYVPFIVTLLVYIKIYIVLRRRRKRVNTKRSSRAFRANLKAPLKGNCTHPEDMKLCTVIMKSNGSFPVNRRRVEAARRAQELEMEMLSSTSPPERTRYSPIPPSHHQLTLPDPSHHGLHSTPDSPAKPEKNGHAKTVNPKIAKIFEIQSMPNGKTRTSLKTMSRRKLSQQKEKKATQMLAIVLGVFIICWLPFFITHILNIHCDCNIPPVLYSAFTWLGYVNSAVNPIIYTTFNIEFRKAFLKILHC
The species named for assay [4] is Bos taurus. In words: Inhibition of [3H]ketanserin binding to 5-hydroxytryptamine 2 receptor of bovine frontal cortex at 10e-7 M. It is filed as tissue-based.
Assay [5] has as its target T3, 5-hydroxytryptamine receptor 1A (Rattus norvegicus, UniProt P19327).
T3 sequence (P19327 whole entry): T2 sequence (whole entry)
Description: Displacement of [3H]8-OH-DPAT from 5-hydroxytryptamine 1A receptor of rat hippocampal membranes. It is filed as cell membranes, Membrane. For orientation: In a radioligand displacement assay an active substance lowers the binding of a labelled ligand.

Assay [6] deals with T3, 5-hydroxytryptamine receptor 1A. Description: Inhibition of forskolin-activated adenylate cyclase (cAMP) activity at 5-hydroxytryptamine 1A receptor in rat hippocampus. It is filed as functional, tissue-based.
For a further assay, the target named is Histamine H1 receptor (Rattus norvegicus, UniProt P31390). In words: Inhibition of [3H]pyrilamine binding to Histamine H1 receptor in rat cortex.
Chain of Histamine H1 receptor (P31390 whole entry): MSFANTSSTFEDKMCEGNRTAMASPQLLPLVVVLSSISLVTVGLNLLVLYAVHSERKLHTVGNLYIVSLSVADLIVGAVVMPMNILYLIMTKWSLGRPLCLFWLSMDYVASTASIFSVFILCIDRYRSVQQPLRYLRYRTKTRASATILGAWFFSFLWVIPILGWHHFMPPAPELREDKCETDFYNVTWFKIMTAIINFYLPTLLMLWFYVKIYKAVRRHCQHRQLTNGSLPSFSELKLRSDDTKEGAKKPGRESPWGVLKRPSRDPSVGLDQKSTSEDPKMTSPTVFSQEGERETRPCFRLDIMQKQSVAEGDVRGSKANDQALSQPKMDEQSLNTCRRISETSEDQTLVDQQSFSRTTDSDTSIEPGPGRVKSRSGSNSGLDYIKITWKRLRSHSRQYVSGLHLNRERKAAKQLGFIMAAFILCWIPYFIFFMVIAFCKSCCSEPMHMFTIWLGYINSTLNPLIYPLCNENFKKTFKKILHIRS
In assay [7] the target is D(2) dopamine receptor (Bos taurus) (UniProt P20288). Description: Inhibition of [3H]YM-09151-2 binding to Dopamine receptor D2 of bovine striatal preparations at 10e-7 M.
Chain of D(2) dopamine receptor (Bos taurus) (P20288 whole entry): as the sequence (P20288 whole entry) above
For assay [8], the species on record is Bos taurus. In words: Inhibition of [3H]prazosin binding to Alpha-1 adrenergic receptor of calf frontal cortex at 10e-7 M. It is filed as tissue-based.
The target of assay [9] is T4, 5-hydroxytryptamine receptor 3B (Mus musculus, UniProt Q9JHJ5).
T4 sequence (Q9JHJ5 whole entry): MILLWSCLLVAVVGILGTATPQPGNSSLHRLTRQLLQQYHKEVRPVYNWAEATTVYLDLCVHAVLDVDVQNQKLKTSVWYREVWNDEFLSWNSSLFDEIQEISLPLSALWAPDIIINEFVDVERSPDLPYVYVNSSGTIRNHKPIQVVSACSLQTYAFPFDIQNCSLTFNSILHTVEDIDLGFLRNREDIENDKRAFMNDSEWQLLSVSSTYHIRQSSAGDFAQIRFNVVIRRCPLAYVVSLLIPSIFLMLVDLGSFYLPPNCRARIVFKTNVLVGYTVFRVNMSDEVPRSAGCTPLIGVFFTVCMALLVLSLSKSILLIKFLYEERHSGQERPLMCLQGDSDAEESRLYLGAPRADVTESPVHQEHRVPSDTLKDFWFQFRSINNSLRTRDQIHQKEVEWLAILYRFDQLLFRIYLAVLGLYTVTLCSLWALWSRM
In words: Inhibition of [3H]BRL-43694 binding to 5-hydroxytryptamine 3 receptor in NG cells 108-15. It is filed as cell-based.

For another assay, the system named is Rattus norvegicus. Description: in vivo behavioral test for Lower Lip Retraction(LLR) (msad=minimum significant active dose) in rats. It is filed as functional.
The target of assay [10] is T1, Alpha-1A adrenergic receptor. In words: Inhibition of [3H]prazosin binding to Alpha-1 adrenergic receptor in bovine frontal cortex. It is filed as tissue-based.
A short description of assay [11]: Inhibition of [3H]ketanserin binding to 5-hydroxytryptamine 2 receptor of bovine frontal cortex. It is filed as tissue-based, Bos taurus. The note with it: read-out: Ki.

Chain of Sigma non-opioid intracellular receptor 1 (Q9R0C9 whole entry): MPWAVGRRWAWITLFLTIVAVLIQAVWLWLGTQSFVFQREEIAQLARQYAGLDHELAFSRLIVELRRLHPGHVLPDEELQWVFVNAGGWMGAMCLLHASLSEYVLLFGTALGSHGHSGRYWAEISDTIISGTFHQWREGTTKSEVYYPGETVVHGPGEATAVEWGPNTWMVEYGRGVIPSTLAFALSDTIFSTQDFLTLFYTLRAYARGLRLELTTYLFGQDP

In the case of `COc1cccc(OC)c1OCCNCC1COc2ccccc2O1` (stereo not given), the pKi in assay [1] was 9.22.
Consider `O=C(CCCN1CCN(C2CCCc3ccccc32)CC1)c1ccc(F)cc1` (stereo not given), for which the inhibition in assay [2] amounted to 37%; in the assay filed under Bos taurus [4], 20%; in [7] it was 74%; in the assay listed under Bos taurus [8], 1%. Also, the pKi on D(1A) dopamine receptor was 6.00; in assay [3] it was 7.52; on D(2) dopamine receptor, 6.96; in [5] it was 7.77; on Histamine H1 receptor, 7.38; in [9] it was 5.50. The results for the pKi in [10] and in assay [11] were 7.74 and 7.18, respectively. In [6], this compound gave a pIC50 of 6.68. For the same compound, in the assay on Rattus norvegicus, the LLR msad is greater than 64 mg/kg.

Broadly, the pKi is the Ki on a negative log10 scale, so that one unit is a factor of ten. One may read the inhibition as the drop in the measured response relative to a control, in per cent. A low value points to a weak effect. One may read the pIC50 as the negative decadic logarithm of the IC50, by convention in mol/L. Low values mean a high IC50, high ones a low IC50.
